Assay results published in patent publication US7157430B2, “(Substituted)acyl dipeptidyl inhibitors of the ICE/CED-3 family of cysteine proteases” (Idun Pharmaceuticals, Inc., priority 1998, dated 2007).
Read-outs that look alike come from different tables or passages of the source. Where a SMILES comes first, the peptide text is derived from it. The star is where a group is joined. Hydrocinnamoyl = O=C(CCc1ccccc1)*; Cbz = O=C(OCc1ccccc1)*

Key:
Format in all cases: biochemical
mICE = target: T1, mICE (Mus musculus, UniProt P29452); test: Fluorescence enzyme assay, IC50 determination, ICE
T1 sequence (P29452 123-296 limits assumed): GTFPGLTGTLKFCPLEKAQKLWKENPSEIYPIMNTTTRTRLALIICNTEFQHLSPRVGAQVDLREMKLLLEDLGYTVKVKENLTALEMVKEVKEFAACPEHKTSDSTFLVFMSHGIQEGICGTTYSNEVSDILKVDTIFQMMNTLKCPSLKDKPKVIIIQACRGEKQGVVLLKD
T1 sequence (P29452 315-402 limits assumed): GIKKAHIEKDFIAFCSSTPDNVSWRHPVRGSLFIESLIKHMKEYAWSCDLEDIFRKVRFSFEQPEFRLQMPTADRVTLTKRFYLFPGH
Experimental: (§1) Fluorescence enzyme assays detecting the activity of the compounds of Formula 1 utilizing the recombinant ICE and CPP32 enzymes are performed essentially according to Thornberry et al. (Nature, 356:768:774 (1992)) and Nicholson et al. (Nature, 376:37–43 (1995)) respectively, (herein incorporated by reference) in 96 well microtiter plates. The substrate is Acetyl-Tyr-Val-Ala-Asp-amino-4-methylcoumarin (AMC) for the ICE assay and Acetyl-Asp-Glu-Val-Asp-amino-4-methylcoumarin for the CPP32, Mch2, Mch3 and Mch5 assays. Enzyme reactions are run in ICE buffer (25 mM HEPES, 1 mM EDTA, 0.1% CHAPS, 10% sucrose, pH 7.5) containing 2 mM DTT at room temperature in duplicate.
(§2) The enzyme and the compound of Formula I to be assayed are allowed to preincubate in the microtitre plate wells for 30 minutes at room temperature prior to the addition of substrate to initiate the reaction. Fluorescent AMC product formation is monitored for one hour at room temperature by measuring the fluorescence emission at 460 nm using an excitation wavelength of 360 nm. The fluorescence change in duplicate (control) wells are averaged and the mean values are plotted as a function of inhibitor concentration to determine the inhibitor concentration producing 50% inhibition (IC50). The results of this assay are set forth below in Table 1 and in Table 3 (for Table 3, see Examples 11 through 52).
(§3) The reference compound for this assay was Cbz-ValAlaAsp-H and the values are denoted in Table 1 as “Reference”.

CPP32 = target: T2, CPP32 (Homo sapiens, UniProt P42574); test: Fluorescence enzyme assay, IC50 determination, CPP32
T2 sequence (P42574 29-175 limits assumed): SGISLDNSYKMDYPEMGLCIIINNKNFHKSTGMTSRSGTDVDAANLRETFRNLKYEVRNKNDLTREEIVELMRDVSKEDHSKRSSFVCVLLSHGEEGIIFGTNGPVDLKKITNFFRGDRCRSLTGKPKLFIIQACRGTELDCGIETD
T2 sequence (P42574 176-277 limits assumed): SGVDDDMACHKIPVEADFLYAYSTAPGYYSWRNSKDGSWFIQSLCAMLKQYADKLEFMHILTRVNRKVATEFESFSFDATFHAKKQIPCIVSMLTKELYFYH
Experimental: as §1, §2, §3

MCH-2 = target: T3, MCH-2 (Homo sapiens, UniProt P55212); test: Fluorescence enzyme assay, IC50 determination, Mch2
T3 sequence (P55212 24-179 limits assumed): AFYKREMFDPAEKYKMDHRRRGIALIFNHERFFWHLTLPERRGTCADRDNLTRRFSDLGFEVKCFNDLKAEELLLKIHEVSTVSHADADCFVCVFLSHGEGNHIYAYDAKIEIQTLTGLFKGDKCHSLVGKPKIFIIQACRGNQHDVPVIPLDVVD
T3 sequence (P55212 194-293 limits assumed): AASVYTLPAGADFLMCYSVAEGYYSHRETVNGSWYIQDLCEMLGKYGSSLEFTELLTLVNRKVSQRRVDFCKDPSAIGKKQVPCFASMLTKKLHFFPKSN
Experimental: as §1, §2, §3

MCH-3 = target: T4, MCH-3 (Homo sapiens, UniProt P55210); test: Fluorescence enzyme assay, IC50 determination, Mch3
T4 sequence (P55210 24-198 limits assumed): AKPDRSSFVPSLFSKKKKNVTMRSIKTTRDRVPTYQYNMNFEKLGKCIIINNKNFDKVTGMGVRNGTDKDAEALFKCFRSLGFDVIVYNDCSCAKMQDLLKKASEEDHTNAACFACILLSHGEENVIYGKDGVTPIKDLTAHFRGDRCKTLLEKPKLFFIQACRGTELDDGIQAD
T4 sequence (P55210 207-303 limits assumed): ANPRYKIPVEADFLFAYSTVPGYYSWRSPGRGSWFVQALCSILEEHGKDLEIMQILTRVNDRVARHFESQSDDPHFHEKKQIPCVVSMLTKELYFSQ
Experimental: as §1, §2, §3

MCH-5 = MCH-5 (Homo sapiens, UniProt Q14790); test: Fluorescence enzyme assay, IC50 determination, Mch5
Experimental: as §1, §2, §3

[1] = Table 3, method of Preparation 3A, read-out: mICE I50
[2] = Table 3, method of Preparation 3A, read-out: CPP32 I50
[3] = Table 3, method of Preparation 3A, read-out: MCH2 I50
[4] = Table 3, method of Preparation 3A, read-out: MCH3 I50
[5] = Table 3, method of Preparation 3A, read-out: MCH5 I50
[6] = recombinant enzyme, Ac-DEVD-AMC substrate, 30 min preincubation, room temperature, read-out: CPP32 IC50
[7] = Ac-DEVD-AMC substrate, 30 min preincubation, room temperature, read-out: MCH-2 IC50
[8] = Ac-DEVD-AMC substrate, 30 min preincubation, room temperature, read-out: MCH-3 IC50
[9] = Ac-DEVD-AMC substrate, 30 min preincubation, room temperature, read-out: MCH-5 IC50

Sequence of MCH-5 (Q14790 217-374 limits assumed, species assumed): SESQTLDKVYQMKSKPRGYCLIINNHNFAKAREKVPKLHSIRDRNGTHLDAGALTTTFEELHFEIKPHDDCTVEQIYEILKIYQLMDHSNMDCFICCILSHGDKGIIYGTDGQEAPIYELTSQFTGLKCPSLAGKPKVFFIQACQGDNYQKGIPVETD
Sequence of MCH-5 (Q14790 385-479 limits assumed, species assumed): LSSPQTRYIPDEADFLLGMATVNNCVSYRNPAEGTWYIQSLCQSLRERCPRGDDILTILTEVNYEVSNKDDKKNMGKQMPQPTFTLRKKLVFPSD

Structure (SMILES)	IC50 (mICE; [1]) [µM]	IC50 (CPP32; [2]) [µM]	IC50 (MCH-2; [3]) [µM]	IC50 (MCH-3; [4]) [µM]	IC50 (MCH-5; [5]) [µM]	IC50 (CPP32; [6]) [µM]	IC50 (MCH-2; [7]) [µM]	IC50 (MCH-3; [8]) [µM]	IC50 (MCH-5; [9]) [µM]	IC50 (mICE; recombinant enzyme, Ac-YVAD-AMC substrate, 30 min preincubation, room temperature, read-out: mICE IC50) [µM]
CC(C)C[C@H](NC(=O)CCC(=O)c1ccc2ccccc2c1)C(=O)N[C@H](C=O)CC(=O)O [Example 21]	0.543	1.42	10.3	7.43	5.23	–	–	–	–	–
CC(C)C[C@H](NC(=O)CCCc1ccc2ccccc2c1)C(=O)N[C@H](C=O)CC(=O)O [Example 18]	1.8	2.76	14.5	18.2	> 50	–	–	–	–	–
CC(C)C[C@H](NC(=O)C(C)Nc1cccc2ccccc12)C(=O)N[C@H](C=O)CC(=O)O (mixture of isomers) [Example 9, (3S,2′RS)-3-[N-(2′-(1-Naphthylamino)Propionyl)Leucinyl]Amino-4-Oxobutanoic Acid]	–	–	–	–	–	0.512	0.31	7.24	0.017	–
CC(C)C[C@H](NC(=O)CCc1ccccc1)C(=O)N[C@H](C=O)CC(=O)O [Example 35] (Hydrocinnamoyl-Leu-Asp-aldehyde)	> 10	9.74	–	> 10	> 10	–	–	–	–	–
CC(C)C[C@H](NC(=O)COc1ccc(OCc2ccccc2)cc1)C(=O)N[C@H](C=O)CC(=O)O [Example 46]	2.51	0.57	33.4	7.25	8.6	–	–	–	–	–
CC(C)[C@H](NC(=O)OCc1ccccc1)C(=O)N[C@@H](C)C(=O)N[C@H](C=O)CC(=O)O [reference, Cbz-ValAlaAsp-H, reference compound] (Cbz-Val-Ala-Asp-aldehyde)	–	–	–	–	–	47	> 10	> 10	2.96	0.064
CC(C)C[C@H](NC(=O)COc1ccc2c(c1)CCCC2)C(=O)N[C@H](C=O)CC(=O)O [Example 52]	2.57	0.162	28.6	2.31	4.95	–	–	–	–	–
CC(C)C[C@H](NC(=O)[C@@H](CCC(=O)O)Oc1cccc2ccccc12)C(=O)N[C@H](C=O)CC(=O)O [Example 4, (3S,2′R)-3-[N-((2′-(1-Naphthyloxy)-4′-Carboxy)Butyryl)Leucinyl]Amino-4-Oxobutanoic Acid]	–	–	–	–	–	0.0038	0.0035	0.13	0.031	–
CC(C)C[C@H](NC(=O)COc1cccc2ncccc12)C(=O)N[C@H](C=O)CC(=O)O [Example 32]	5.25	0.412	> 50	3.85	4.02	–	–	–	–	–
CC(C)C[C@H](NC(=O)CCOc1ccccc1)C(=O)N[C@H](C=O)CC(=O)O [Example 37]	9.42	0.419	> 50	6.04	> 10	–	–	–	–	–
